We go through one molecule from patent publication US8329736B2, “Triazole compounds that modulate HSP90 activity” (Synta Pharmaceuticals, Corp., priority 2006, dated 2012).

The assay deals with Her2. In words: Degradation of Her2 in BT-474 cells, Western blot (Method 1). The format is cell-based, human. Particulars: 0.5 μM, overnight. On the procedure: Human high-Her2 breast carcinoma BT474 (HTB-20), SK-BR-3 (HTB-30) and MCF-7 breast carcinoma (HTB-22) from American Type Culture Collection, VA, USA were grown in Dulbecco's modified Eagle's medium with 4 mM L-glutamine and antibiotics (100 IU/ml penicillin and 100 ug/ml streptomycine; GibcoBRL). To obtain exponential cell growth, cells were trypsinized, counted and seeded at a cell density of 0.5×10^6 cells/ml regularly, every 3 days. All experiments were performed on day 1 after cell passage.
BT-474 cells are treated with 0.5 μM, 2 μM, or 5 μM of 17AAG (a positive control) or 0.5 μM, 2 μM, or 5 μM of a compound of the invention overnight in DMEM medium. After treatment, each cytoplasmic sample is prepared from 1×10^6 cells by incubation of cell lysis buffer (#9803, cell Signaling Technology) on ice for 10 minutes. The resulting supernatant used as the cytosol fractions is dissolved with sample buffer for SDS-PAGE and run on a SDS-PAGE gel, blotted onto a nitrocellulose membrane by using semi-dry transfer. Non-specific binding to nitrocellulose is blocked with 5% skim milk in TBS with 0.5% Tween at room temperature for 1 hour, then probed with anti-Her2/ErB2 mAb (rabbit IgG, #2242, Cell Signaling) and anti-Tubulin (T9026, Sigma) as housekeeping control protein. […]

Regarding `C=CCNC1=C2C[C@@H](C)C[C@H](OC)[C@H](O)[C@@H](C)/C=C(\C)[C@H](OC(N)=O)[C@@H](OC)/C=C\C=C(/C)C(=O)NC(=CC1=O)C2=O` [Compound 17AAG, 17-allylamino-17-demethoxygeldanamycin], the “degradation of Her2” value is recorded as “partial degradation of Her2”.
